Assay results taken from publication PMC10721786, “Development of a potent benzonitrile-based inhibitor of glutaminyl-peptide cyclotransferase-like protein (QPCTL) with antitumor efficacy” (Signal Transduction and Targeted Therapy, 2023).

Experiments:
pGlu-CD47 [1] = assay: Flow cytometry of pGlu-CD47 (hCD47-CC2C6 binding) in Raji cells; type: cell-based, human; details: 100 nM, 48 h
Experimental: (§1) Binding to cell surface CD47 was assessed by staining cells with fluorochrome-labeled antibodies clone CC2C6 (BioLegend, Cat. # 323102) and B6H12 (Abcam, Cat. # ab134485) to human CD47 at a dilution of 1:100 in PBS containing 1% FBS (FACS buffer) for 30 min on ice, while protected from light. SIRPα binding to CD47 was assessed by incubating cells with PE labeled recombinant human SIRPα/ CD172α Protein, Fc tag (ACRO Biosystems, Cat. # SIA-HP252) or PE labeled mouse SIRPα Protein, His tag (ACRO Biosystems, Cat. # SIA-MP2H6) for 1 hour on ice, while protected from light.

senescent cells = assay: Efferocytosis of apoptotic Jurkat cells by macrophages after co-culture with senescent cells; type: cell-based, mouse; details: pretreatment, 4 days, Fig. S7
Experimental: Apoptotic corpse generation. Jurkat cells were cultured in a T25 flask and apoptotic corpses were inducted by exposure to 5 μM camptothecin (Tsbiochem, CAT. # t2764) for 4 hours. Apoptosis induction was confirmed by apoptoic kit (Beyotime Biotechnology, Cat. # C1062M) through flow cytometry.
Senescence induction. B16F10 Cells were plated (96-well plate: 2000 cells/well) and rested over night before exposure to 10 μM cisplatin (APExBIO, Cat. # A8321). Cisplatin exposed cells were subsequently cultured for 4 or 7 days (without media change) and senescent cells were evaluated by β-Galactosidase staining using a SA-β-Gal staining Kit (Solarbio, Cat. # G1580-100T) according to the manufacturer’s instructions. Senescent cells were identified as blue stained cells under light microscopy.
Efferocytosis after co-culture. Senescent cells were plated in 96-well plates (2000 cells/well) and inducted as described before. QPCTL inhibitors were added every other day to the cells. For co-culture conditions BMDMs were added to the senescent cells. Senescent cells and macrophages were co-cultured for 16 hours. […] Following removal of unbound corpses by washing three times with PBS, macrophages were marked with APC-labeled anti-F4/80, and the co-culture was analyzed by flow cytometry. Efferocytosis was calculated as the percentage of CFSE^+F4/80^+ cells among F4/80^+ cells.

CD47/SIRPα = assay: Cell surface binding of human or mouse SIRPα protein to tumor cells (Raji, B16F10), flow cytometry; type: cell-based
Experimental: as §1

BMDM cells = assay: Cell viability and phagocytosis ability of BMDM; type: cell-based, mouse
Raji cells = assay: In vitro phagocytosis of Raji cells by mouse macrophages; type: cell-based, human
Experimental: (§2) Eight-week-old C57BL/6 wild-type mice were obtained from Shanghai Slaccas Laboratory Animal Co., Ltd.. To obtain bone marrow derived macrophage (BMDM), femora and tibiae were flushed with ice-cold PBS, and erythrocytes were lysed with RBC lysis buffer. Then bone marrow cells were cultured in DMEM medium with 10 % FBS and 100 U/ mL penicillin, and 100 μg/ mL streptomycin in the presence of 50 ng/ mL mouse M-CSF (Macrophage-Colony Stimulating Factor) (PeproTech), 0.1 mM Sodium pyruvate (Gibco, Cat. # 11360-70) and 10 mM HEPES (Gibco, Cat. # 15630-080) for 7 days.
(§3) Phagocytosis assay were conducted as previously described. Briefly, macrophages were plated 1 x 10^5 cells per well in a 48-well plate in complete DMEM medium, supplemented with M-CSF overnight before the experiment. Cancer cells were stained with 5 μM CFSE at 37 °C for 10 min. Each phagocytotic reaction reported in this work was performed by co-culture of target cells and macrophages for 4 hours at 37 °C. Macrophages were identified with APC-labeled anti-F4/80 (Biolegend, Cat. # 123116), and flow cytometry (BD FACSCanto II, San Jose, CA) was performed. Phagocytosis was calculated as the percentage of CFSE^+F4/80^+ cells (Q2) among CFSE^+ cells (Q2+Q3): phagocytosis (%) = [Q2 / (Q2+ Q3)] x100 %.

B16F10 cells = assay: In vitro phagocytosis of B16F10 cells by mouse macrophages; type: cell-based
Experimental: as §2, §3

pGlu-CD47 [2] = assay: hCD47-CC2C6 binding to various cancer cells (H929, HCT116, Huh7, SKOV3, SU-DHL-8, T24, H1299, MCF-7); type: cell-based, human; details: 500 nM, 48 h
Experimental: as §1

[3] = In vivo toxicity in mice (blood routine, serum biochemistry, HE histology); design: species or system mouse
Experimental: Briefly, male mice were implanted subcutaneously with 5 x 10^5 B16F10 cells resuspended in 100 μL of DMEM on Day 0. Anti-PD-1 antibody or mouse IgG2a isotype control was dosed at 80 µg per mouse intraperitoneally starting on day 6 after tumor implantation, followed by a once-a-week regimen. QPCTL inhibitors was intraperitoneally administered at 25 mg/kg once a day since day 6. Tumors were measured every three days, and mice were sacrificed on day 15. Mouse organs and blood were collected for blood routine, blood serum biochemistry examination and histological evaluation.
Blood routine and blood serum biochemistry examination of mice. Whole blood was collected in EDTA anticoagulant tubes for blood routine test and heparin sodium tubes for blood serum biochemistry examination. Tubes were gently inverted several times to thoroughly mix the blood and anticoagulant. The routine blood test was tested by Automatic Hematology Analyzer (TEK8500H4-0502, TECOM SCIENCE, China). Blood serum was obtained by centrifugation at 4℃ at 4000 rpm for 10 minutes. Serum creatinine (CR) was determined by CR kit (PUREBIO, Cat. # CR01), urea nitrogen (BUN) was determined by BUN kit (PUREBIO, Cat. # URE01), alanine aminotransferase (ALT) was determined by ALT kit (PUREBIO, Cat. # ALT01) and […] was determined by AST kit (PUREBIO, Cat. # AST01) according to the manufacturer’s instructions. […]

CD47 = assay: Overall cell surface CD47 (hCD47-B6H12 binding) in HEK293T and Raji cells; type: cell-based, human; details: 100 nM, 48 h
Experimental: as §1

SMILES: Cn1cncc1C1CCN(c2c(C#N)cccc2-c2ccc(F)nc2)CC1 [QP5038]
- inhibitory effect on CD47 pyroglutamation compared to SEN177 and PQ912 (pGlu-CD47 [1]): superior inhibitory effects
- inhibitory effect of senescent cells on macrophage-mediated phagocytosis of apoptotic cells (senescent cells): could block the inhibitory effect
- binding of human or mouse SIRPα protein to cell surface (CD47/SIRPα): significantly reduced
- cell viability of macrophages (BMDM cells; Fig. S8a): did not attenuate
- phagocytotic ability of macrophages (BMDM cells; apoptotic Jurkat cells, Fig. S8b): did not attenuate
- phagocytosis of Raji cells (Raji cells; 10 μM inhibitor 48 h, synergized with rituximab, mouse macrophages): significantly boosted
- flow cytometry quadrant Q1 (Raji cells; 48 h, 10 µM): 26.4
- flow cytometry quadrant Q2 (CFSE+F4/80+ cells) (Raji cells; 48 h, 10 µM): 2.74
- flow cytometry quadrant Q3 (Raji cells; 48 h, 10 µM): 70.1
- flow cytometry quadrant Q4 (Raji cells; 48 h, 10 µM): 0.70
- phagocytosis of B16F10 cells (B16F10 cells; 10 μM inhibitor 48 h, in combination with TA99, mouse macrophages): significantly boosted
- flow cytometry quadrant Q1 (B16F10 cells; 48 h, 10 µM): 34.7
- flow cytometry quadrant Q2 (CFSE+F4/80+ cells) (B16F10 cells; 48 h, 10 µM): 5.39
- flow cytometry quadrant Q3 (B16F10 cells; 48 h, 10 µM): 59.0
- flow cytometry quadrant Q4 (B16F10 cells; 48 h, 10 µM): 0.89
- efficiency on phagocytosis compared with SEN177 and PQ912 (B16F10 cells; B16F10 and Raji cells, 10 μM 48 h, Fig. 1h–k, Fig. S6): much better than that of SEN177 and PQ912
- CD47 pyroglutamation in various types of cancer cells (pGlu-CD47 [2]): significantly attenuated
- organ damage (HE staining) ([3]; C57B/L6 mice, 25 mg/kg daily for 15 days, Fig. S10): would not cause
- abnormal blood composition ([3]; mice, 25 mg/kg daily, Fig. S11): would not cause
- overall cell surface levels of CD47 (CD47): did not alter
